In brackets after ≈: the same amount, converted by molar mass. Several values for one entry are separate records, joined by “and”; a condition that tells them apart may be missing. Equal values may be shown once.
What was measured:
[1] = test system: Mycobacterium tuberculosis H37Rv; test: Time-kill assay (CFU counting); type: cell-based; conditions: for CFUs /ml (10^6) h0: h0 (start of treatment); for Relative CFUs (log10) h72: h72 relative to h0
[2] = test system: Mycobacterium tuberculosis H37Rv; test: Minimum Inhibitory Concentration 50 (MIC50) determination; type: cell-based; conditions: OD600 growth inhibition, 72 hours, 7H9-rich media
[3] = test system: Mycobacterium tuberculosis H37Rv; conditions: compared with other frontline drugs; stated as known; cited from earlier work

CC(=O)NC[C@H]1CN(c2ccc(N3CCOCC3)c(F)c2)C(=O)O1 [LZD, Linezolid]
CFUs /ml (10^6) h0 ([1]; 0.0844 µg/ml): 81 CFUs /ml (10^6) and 100 CFUs /ml (10^6) and 98 CFUs /ml (10^6)
CFUs /ml (10^6) h24 ([1]; 0.0844 µg/ml): 135 CFUs /ml (10^6) and 147 CFUs /ml (10^6) and 127 CFUs /ml (10^6)
CFUs /ml (10^6) h72 ([1]; 0.0844 µg/ml): 249 CFUs /ml (10^6) and 245 CFUs /ml (10^6) and 239 CFUs /ml (10^6)
Relative CFUs (log10) h72 ([1]; 0.0844 µg/ml): 0.488 log10 and 0.389 log10 and 0.387 log10
CFUs /ml (10^6) h0 ([1]; 0.844 µg/ml): 61 CFUs /ml (10^6) and 68 CFUs /ml (10^6) and 60 CFUs /ml (10^6)
CFUs /ml (10^6) h24 ([1]; 0.844 µg/ml): 63 CFUs /ml (10^6) and 74 CFUs /ml (10^6) and 92 CFUs /ml (10^6)
CFUs /ml (10^6) h72 ([1]; 0.844 µg/ml): 71 CFUs /ml (10^6) and 86 CFUs /ml (10^6) and 72 CFUs /ml (10^6)
Relative CFUs (log10) h72 ([1]; 0.844 µg/ml): 0.066 log10 and 0.102 log10 and 0.079 log10
MIC50 [2]: 1.13 µg/mL (≈ 3.35 µM)

CO[C@H]1/C=C/O[C@@]2(C)Oc3c(C)c(O)c4c(O)c(c(/C=N/N5CCN(C)CC5)c(O)c4c3C2=O)NC(=O)/C(C)=C\C=C\[C@H](C)[C@H](O)[C@@H](C)[C@@H](O)[C@@H](C)[C@H](OC(C)=O)[C@@H]1C [RIF, Rifampicin]
MIC50 [2]: 0.02 µg/mL (≈ 0.0243 µM)

NNC(=O)c1ccncc1 [INH, Isoniazid]
CFUs /ml (10^6) h24 ([1]; 0.018 µg/ml): 182 CFUs /ml (10^6) and 160 CFUs /ml (10^6) and 171 CFUs /ml (10^6)
CFUs /ml (10^6) h72 ([1]; 0.018 µg/ml): 184 CFUs /ml (10^6) and 194 CFUs /ml (10^6) and 203 CFUs /ml (10^6)
CFUs /ml (10^6) h0 ([1]; 0.18 µg/ml): 93 CFUs /ml (10^6) and 77 CFUs /ml (10^6) and 70 CFUs /ml (10^6)
CFUs /ml (10^6) h24 ([1]; 0.18 µg/ml): 60 CFUs /ml (10^6) and 90 CFUs /ml (10^6)
CFUs /ml (10^6) h72 ([1]; 0.18 µg/ml): 78 CFUs /ml (10^6) and 97 CFUs /ml (10^6) and 70 CFUs /ml (10^6)
Relative CFUs (log10) h72 ([1]; 0.18 µg/ml): -0.076 log10 and 0.1 log10 and 0 log10
CFUs /ml (10^6) h0 ([1]; 0.36 µg/ml): 159 CFUs /ml (10^6) and 180 CFUs /ml (10^6) and 187 CFUs /ml (10^6)
CFUs /ml (10^6) h72 ([1]; 0.36 µg/ml): 0.1 CFUs /ml (10^6)
Relative CFUs (log10) h72 ([1]; 0.36 µg/ml): -3.201 log10 and -3.255 log10 and -3.272 log10
CFUs /ml (10^6) h0 ([1]; 1.8 µg/ml): 77 CFUs /ml (10^6) and 68 CFUs /ml (10^6) and 87 CFUs /ml (10^6)
CFUs /ml (10^6) h72 ([1]; 1.8 µg/ml): 0.1 CFUs /ml (10^6)
Relative CFUs (log10) h72 ([1]; 1.8 µg/ml): -2.886 log10 and -2.833 log10 and -2.94 log10
MIC50 [2]: 0.2 µg/mL (≈ 1.46 µM)

O=[N+]([O-])c1cn2c(n1)OC[C@@H](OCc1ccc(OC(F)(F)F)cc1)C2 [PA824, Pretomanid]
MIC50 [2]: 0.15 µg/mL (≈ 0.418 µM)

COc1c(N2C[C@@H]3CCCN[C@@H]3C2)c(F)cc2c(=O)c(C(=O)O)cn(C3CC3)c12 [MXF, Moxifloxacin hydrocholoride]
CFUs /ml (10^6) h0 ([1]; 0.075 µg/ml): 69 CFUs /ml (10^6) and 53 CFUs /ml (10^6) and 72 CFUs /ml (10^6)
CFUs /ml (10^6) h24 ([1]; 0.075 µg/ml): 90 CFUs /ml (10^6) and 88 CFUs /ml (10^6) and 80 CFUs /ml (10^6)
CFUs /ml (10^6) h72 ([1]; 0.075 µg/ml): 159 CFUs /ml (10^6) and 165 CFUs /ml (10^6) and 147 CFUs /ml (10^6)
Relative CFUs (log10) h72 ([1]; 0.075 µg/ml): 0.363 log10 and 0.493 log10 and 0.31 log10
CFUs /ml (10^6) h0 ([1]; 0.3 µg/ml): 43 CFUs /ml (10^6) and 50 CFUs /ml (10^6)
CFUs /ml (10^6) h72 ([1]; 0.3 µg/ml): 0.1 CFUs /ml (10^6)
Relative CFUs (log10) h72 ([1]; 0.3 µg/ml): -2.633 log10 and -2.699 log10
MIC50 [2]: 0.07 µg/mL (≈ 0.174 µM)

COc1nc2ccc(Br)cc2cc1[C@@H](c1ccccc1)[C@@](O)(CCN(C)C)c1cccc2ccccc12 [BDQ, Bedaquiline]
CFUs /ml (10^6) h0 ([1]; 1.15 µg/ml): 61 CFUs /ml (10^6) and 69 CFUs /ml (10^6) and 72 CFUs /ml (10^6)
CFUs /ml (10^6) h24 ([1]; 1.15 µg/ml): 91 CFUs /ml (10^6) and 96 CFUs /ml (10^6) and 101 CFUs /ml (10^6)
CFUs /ml (10^6) h72 ([1]; 1.15 µg/ml): 352 CFUs /ml (10^6) and 362 CFUs /ml (10^6) and 346 CFUs /ml (10^6)
Relative CFUs (log10) h72 ([1]; 1.15 µg/ml): 0.761 log10 and 0.72 log10 and 0.682 log10
CFUs /ml (10^6) h0 ([1]; 5.75 µg/ml): 55 CFUs /ml (10^6) and 53 CFUs /ml (10^6) and 61 CFUs /ml (10^6)
CFUs /ml (10^6) h24 ([1]; 5.75 µg/ml): 97 CFUs /ml (10^6) and 81 CFUs /ml (10^6) and 100 CFUs /ml (10^6)
CFUs /ml (10^6) h72 ([1]; 5.75 µg/ml): 115 CFUs /ml (10^6) and 132 CFUs /ml (10^6) and 96 CFUs /ml (10^6)
Relative CFUs (log10) h72 ([1]; 5.75 µg/ml): 0.32 log10 and 0.396 log10 and 0.197 log10
speed of killing of Mycobacterium tuberculosis [3]: kills Mycobacterium tuberculosis relatively slowly
MIC50 [2]: 1.61 µg/mL (≈ 2.9 µM)

CC(C)/N=c1\cc2n(-c3ccc(Cl)cc3)c3ccccc3nc-2cc1Nc1ccc(Cl)cc1 [CFZ, Clofazimine]
CFUs /ml (10^6) h0 ([1]; 0.0728 µg/ml): 239 CFUs /ml (10^6) and 141 CFUs /ml (10^6) and 148 CFUs /ml (10^6)
CFUs /ml (10^6) h24 ([1]; 0.0728 µg/ml): 116 CFUs /ml (10^6) and 112 CFUs /ml (10^6) and 124 CFUs /ml (10^6)
CFUs /ml (10^6) h72 ([1]; 0.0728 µg/ml): 176 CFUs /ml (10^6) and 192 CFUs /ml (10^6) and 207 CFUs /ml (10^6)
Relative CFUs (log10) h72 ([1]; 0.0728 µg/ml): -0.133 log10 and 0.134 log10 and 0.146 log10
CFUs /ml (10^6) h0 ([1]; 0.728 µg/ml): 158 CFUs /ml (10^6) and 182 CFUs /ml (10^6) and 101 CFUs /ml (10^6)
CFUs /ml (10^6) h24 ([1]; 0.728 µg/ml): 87 CFUs /ml (10^6) and 69 CFUs /ml (10^6) and 67 CFUs /ml (10^6)
CFUs /ml (10^6) h72 ([1]; 0.728 µg/ml): 41 CFUs /ml (10^6) and 26 CFUs /ml (10^6) and 52 CFUs /ml (10^6)
